Earlier results, collected in patent US9675585B1, “Extended release pharmaceutical formulations” (Ezra Pharma, priority 2016, dated 2017).

time after which plasma concentration reaches very low level (following Cmax): 10 to 12 h
Tmax (oral administration): 2 to 4 h
SMILES: CCCCC(=O)N(Cc1ccc(-c2ccccc2-c2nnn[nH]2)cc1)[C@H](C(=O)O)C(C)C [valsartan]
